Consider 14 molecules from patent publication US20150329558A1, “FUSED HETEROCYCLIC COMPOUNDS AS ION CHANNEL MODULATORS” (Gilead Sciences, Inc., priority 2011, published 2015).

Data set [1] addresses wild-type human cardiac sodium channel, hNav1.5 (peak INa) (Homo sapiens, UniProt Q14524). Kind of data set: Peak INa screening assay (tonic and use-dependent block). Format: cell-based. The conditions noted are these: 1 μM. How it is done: The late sodium current (Late INa) and peak sodium current (Peak INa) assays are performed on an automated electrophysiology platform, QPatch 16× (Sophion Bioscience, Copenhagen, Denmark), which uses the whole cell patch clamp technique to measure currents through the cell membrane of up to 16 cells at a time. The assay uses an HEK293 (human embryonic kidney) cell line heterologously expressing the wild-type human cardiac sodium channel, hNav1.5, purchased from Millipore (Billerica, Mass.). No beta subunits were coexpressed with the Na channel alpha subunit. Cells are maintained with standard tissue culture procedures and stable channel expression is maintained with 400 μg/mL Geneticin in the culture medium. […] Experiments are carried out at 23-25° C. For both the Late INa and Peak INa assays, series resistance compensation is set to 100% and series resistance and whole-cell compensation are performed automatically. Currents are digitized at 25 kHz and low-pass filtered at 12 kHz and 10 kHz for the late and peak INa assays, respectively. Currents through open sodium channels are automatically recorded and stored in the Sophion Bioscience Oracle database (Sophion Bioscience, Copehagen, Denmark). Analysis is performed using QPatch Assay and database software and data are compiled in Excel. Compound stocks are routinely made by the Gilead Sample Bank in plastic vials to 10 mM in dimethyl sulfoxide (DMSO). In some cases, when compounds are not soluble in DMSO, they are made in 100% ethanol. Stocks are sonicated as necessary. […] The intracellular solution used to perfuse the inside of the cells for both the Late INa and Peak INa assays contains: 120 mM CsF, 20 mM CsCl, 5 mM EGTA, 5 mM HEPES and pH adjusted to 7.4 with CsOH. Compounds are diluted in extracellular solution to 1 μM in glass vials and then transferred to glass well plates before robotic addition to the cells. […] Compounds were also evaluated for their effect in several other assays, including their effect on Peak INa. Good separation between the concentrations of test compound to reduce late and peak INa is beneficial to enable separation of the desired effect to reduce late INa-induced electrical and mechanical dysfunction from the undesired effect to reduce peak INa, which can lead to slowing or block of conduction of electrical excitation in the heart. It is contemplated that the compounds of Formula I avoid significant block of peak INa. Since the peak INa in the cells used herein can be very large, introducing artifacts in the recording, the concentration of Na^+ in the bath can be reduced to 20 mM and a nonpermeant cation added to compensate for the Na^+ that was removed to maintain the osmolarity and ionic strength of the solution (see solution details below). Analysis of peak INa generally requires correction for rundown before determining the % block of peak current by the tested compound. […] A low stimulation frequency of 0.1 Hz was used to determine the effect of the test compound when the channel spent most of the time in the resting (closed) state and provides information about Tonic Block (TB). A higher stimulation frequency (3 Hz) was used to measure block of the channel when it spent more time in the activated and inactivated states and provided a measure of Use-Dependent Block (UDB). Use-dependent block refers to the accumulation of block with increased frequency of channel activation. Block of cardiac peak INa by compounds of this invention is increased with an increase in the frequency of stimulation from 0.1 to 1-5 Hz (frequencies encountered either in the normal heart or during tachycardia). It is therefore expected that reduction of peak INa by compounds of this invention will be greater at high heart rates, such as those during tachyarrhythmias, than at normal heart rates. […]

A short description of data set [2]: Microsomal stability assay, rat. Format: in vitro ADME. The settings on record: metabolic stability, rat liver microsomes 0.5 mg/mL, substrate 3 uM. The gist of the method: (§1)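 Liver microsomes at 0.5 mg/mL protein in 100 mM KPO4 buffer, incubated with 3 uM compound and NADPH-regenerating system, run in duplicate. Samples taken at 2, 12, 25, 45 and 65 min and quenched in MeOH/ACN/water before analysis.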
On the technique in general: Liver microsomes are a subcellular fraction often used to study metabolism.

Data set [3] in a line: Microsomal stability assay, human. Format: in vitro ADME. The settings on record: metabolic stability, human liver microsomes 0.5 mg/mL, substrate 3 uM. The gist of the method:
as §1

A short description of data set [4]: Microsomal stability assay, dog. The data set is classed as in vitro ADME. The settings on record: metabolic stability, dog liver microsomes 0.5 mg/mL, substrate 3 uM. Put shortly: as §1
The target of data set [5] is wild-type human cardiac sodium channel, hNav1.5 (late INa) (Homo sapiens, UniProt Q14524). Nature of the data set: Late INa screening assay (QPatch whole cell patch clamp). The data set is classed as cell-based. The conditions noted are these: percent block of late INa, compound at 1 μM, 10 μM Tefluthrin, HEK293 hNav1.5; read-out: Late INa 1 μM. The gist of the method:
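Compounds tested at 1 μM final in extracellular solution against tefluthrin (10 μM)-enhanced late current. Automated patch clamp (23-25° C) on HEK293 expressing alpha subunit alone: −120 mV holding, 250 ms depolarization to −20 mV every 10 s. Read-out is percent inhibition of mean current over 225–250 ms.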
On the technique in general: The patch-clamp technique gives a direct electrical read-out from membranes.

The mark [6] stands for this setting: tonic block of peak INa, 0.1 Hz, read-out: Peak TB 1 μM.
The mark [7] stands for this setting: use-dependent block of peak INa, 3 Hz, read-out: Peak UDB 1 μM.

Like-named read-outs stand apart in the source and are kept apart here.

wild-type human cardiac sodium channel, hNav1.5 (late INa), sequence (Q14524 whole entry): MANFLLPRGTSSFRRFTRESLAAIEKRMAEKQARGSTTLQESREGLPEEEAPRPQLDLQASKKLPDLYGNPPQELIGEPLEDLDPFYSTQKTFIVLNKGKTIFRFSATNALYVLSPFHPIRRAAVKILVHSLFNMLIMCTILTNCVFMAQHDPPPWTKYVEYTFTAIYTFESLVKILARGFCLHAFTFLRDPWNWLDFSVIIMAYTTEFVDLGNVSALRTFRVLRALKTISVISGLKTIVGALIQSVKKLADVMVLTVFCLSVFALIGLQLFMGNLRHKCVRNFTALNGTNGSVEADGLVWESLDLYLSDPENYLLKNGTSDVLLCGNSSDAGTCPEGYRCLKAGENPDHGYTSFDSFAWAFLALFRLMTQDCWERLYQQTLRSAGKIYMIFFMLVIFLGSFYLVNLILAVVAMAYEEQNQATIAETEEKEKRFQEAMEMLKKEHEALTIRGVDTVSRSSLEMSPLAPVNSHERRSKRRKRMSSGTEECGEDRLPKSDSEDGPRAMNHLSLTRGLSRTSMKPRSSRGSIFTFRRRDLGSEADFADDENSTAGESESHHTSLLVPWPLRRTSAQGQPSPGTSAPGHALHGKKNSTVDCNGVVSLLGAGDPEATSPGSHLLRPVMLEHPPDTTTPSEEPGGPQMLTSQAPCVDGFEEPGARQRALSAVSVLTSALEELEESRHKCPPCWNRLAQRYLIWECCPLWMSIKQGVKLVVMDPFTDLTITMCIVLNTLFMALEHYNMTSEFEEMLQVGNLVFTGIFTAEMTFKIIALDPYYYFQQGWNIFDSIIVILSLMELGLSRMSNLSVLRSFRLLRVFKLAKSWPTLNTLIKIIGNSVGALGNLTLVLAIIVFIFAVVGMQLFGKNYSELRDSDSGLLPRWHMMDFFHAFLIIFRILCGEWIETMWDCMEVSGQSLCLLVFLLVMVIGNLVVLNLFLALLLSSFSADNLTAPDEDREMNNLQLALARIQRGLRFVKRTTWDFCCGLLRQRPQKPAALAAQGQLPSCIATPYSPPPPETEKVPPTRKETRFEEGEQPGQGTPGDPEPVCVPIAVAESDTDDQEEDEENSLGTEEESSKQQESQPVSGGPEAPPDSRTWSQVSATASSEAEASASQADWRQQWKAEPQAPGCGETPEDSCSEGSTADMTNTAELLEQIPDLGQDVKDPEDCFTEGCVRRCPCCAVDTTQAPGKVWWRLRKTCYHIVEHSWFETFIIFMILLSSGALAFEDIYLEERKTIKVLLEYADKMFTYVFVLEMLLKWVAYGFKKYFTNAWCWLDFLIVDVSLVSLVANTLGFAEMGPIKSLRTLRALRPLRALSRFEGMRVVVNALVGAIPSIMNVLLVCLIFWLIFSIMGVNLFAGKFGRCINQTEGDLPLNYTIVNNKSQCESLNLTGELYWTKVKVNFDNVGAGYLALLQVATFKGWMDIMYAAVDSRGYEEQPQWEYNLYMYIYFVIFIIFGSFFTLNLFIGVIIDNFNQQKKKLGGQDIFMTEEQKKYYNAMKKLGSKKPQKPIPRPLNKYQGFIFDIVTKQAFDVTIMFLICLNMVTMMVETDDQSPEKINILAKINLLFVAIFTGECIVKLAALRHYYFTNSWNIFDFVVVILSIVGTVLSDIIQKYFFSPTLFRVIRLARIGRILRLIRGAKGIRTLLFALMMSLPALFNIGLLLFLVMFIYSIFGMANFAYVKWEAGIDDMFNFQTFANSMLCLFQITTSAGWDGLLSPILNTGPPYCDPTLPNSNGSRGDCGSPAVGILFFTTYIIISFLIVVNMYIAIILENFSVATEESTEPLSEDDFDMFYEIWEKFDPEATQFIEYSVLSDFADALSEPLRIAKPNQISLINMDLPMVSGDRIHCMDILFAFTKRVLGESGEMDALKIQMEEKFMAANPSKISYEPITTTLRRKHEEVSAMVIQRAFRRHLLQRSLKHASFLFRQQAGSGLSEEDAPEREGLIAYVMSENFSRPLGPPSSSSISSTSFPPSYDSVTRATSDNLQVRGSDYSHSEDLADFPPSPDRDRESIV
wild-type human cardiac sodium channel, hNav1.5 (peak INa), sequence (Q14524 whole entry): as above

For the molecule `O=C1c2cc(-c3ccc(OC(F)(F)F)cc3)ccc2SCN1Cc1ccccn1` [Compound X-1, 3-(pyridin-2-ylmethyl)-6-(4-(trifluoromethoxy)phenyl)-2H-benzo[e][1,3]thiazin-4(3H)-one], the inhibition at 1 µM in data set [1] (setting [6]) is 14%; in data set [1] (setting [7]), 22%; in data set [5] it was 47%. In data set [2], this molecule yielded an MS Rat THalf of 58 min. Moreover, the MS Human THalf in data set [3] came to 74 min. In data set [4], this molecule displayed an MS Dog THalf of 107 min.

Turning to `O=C1c2cc(-c3ccc(OC(F)(F)F)cc3)ccc2SCN1Cc1ncccn1` [Compound X-2, 3-(pyrimidin-2-ylmethyl)-6-(4-(trifluoromethoxy)phenyl)-2H-benzo[e][1,3]thiazin-4(3H)-one], the inhibition at 1 µM in data set [1] (setting [6]) came to 14%; in data set [1] (setting [7]), 17%; in data set [5], 55%. The MS Rat THalf in data set [2] turned out to be 137 min. In data set [3], this molecule came in with an MS Human THalf of 142 min. For the same molecule, in data set [4], the MS Dog THalf was 164 min.

With `O=C1c2cc(-c3ccc(C(F)(F)F)cc3)ccc2SCN1Cc1ccccn1` [Compound X-3, 3-(pyridin-2-ylmethyl)-6-(4-(trifluoromethyl)phenyl)-2H-benzo[e][1,3]thiazin-4(3H)-one], the inhibition at 1 µM in data set [1] (setting [6]) turned out to be 31%; in data set [1] (setting [7]), 35%; in data set [5] it was 67%. The molecule also gave an MS Rat THalf in data set [2] of 45 min. For the same molecule, the MS Human THalf in data set [3] was determined as 36 min. Moreover, the MS Dog THalf in data set [4] is 137 min.

In the case of `O=C1c2cc(-c3ccc(C(F)(F)F)cc3)ccc2SCN1Cc1ncccn1` [Compound X-4, 3-(pyrimidin-2-ylmethyl)-6-(4-(trifluoromethyl)phenyl)-2H-benzo[e][1,3]thiazin-4(3H)-one], the inhibition at 1 µM in data set [1] (setting [6]) was found to be 27%; in data set [1] (setting [7]), 25%; in data set [5], 52%. In data set [2], this molecule returned an MS Rat THalf of 122 min. Moreover, in data set [3], the MS Human THalf turned out to be 103 min. The MS Dog THalf in data set [4] was determined as 126 min.

With `O=C1c2cc(-c3ccc(C(F)(F)F)cc3)ccc2SCN1Cc1ccccc1Cl` [Compound X-5, 3-(2-chlorobenzyl)-6-(4-(trifluoromethyl)phenyl)-2H-benzo[e][1,3]thiazin-4(3H)-one], the results for the inhibition at 1 µM in data set [1] (setting [6]), in data set [1] (setting [7]) and in data set [5] were 12%, 35% and 57%, respectively. In data set [2], this molecule had an MS Rat THalf of 57 min. Also, the MS Human THalf in data set [3] stood at 48 min. In addition, the MS Dog THalf in data set [4] was 55 min.

`O=C1c2cc(-c3ccc(C(F)(F)F)cc3)ccc2SCN1Cc1ncccc1F` [Compound X-6, 3-((3-fluoropyridin-2-yl)methyl)-6-(4-(trifluoromethyl)phenyl)-2H-benzo[e][1,3]thiazin-4(3H)-one]: the figures for the inhibition at 1 µM in data set [1] (setting [6]), in data set [1] (setting [7]) and in data set [5] were 35%, 32% and 69%, respectively. In data set [2], this molecule showed an MS Rat THalf of 46 min. The molecule further gave an MS Human THalf in data set [3] of 38 min. The MS Dog THalf in data set [4] was 120 min.

For `O=C1c2cc(-c3ccc(OC(F)(F)F)cc3)ccc2SCN1Cc1ncccc1F` [Compound X-9, 3-((3-fluoropyridin-2-yl)methyl)-6-(4-(trifluoromethoxy)phenyl)-2H-benzo[e][1,3]thiazin-4(3H)-one], the inhibition at 1 µM in data set [1] (setting [6]) came out at 39%; in data set [1] (setting [7]), 31%; in data set [5], 67%. For the same molecule, the MS Rat THalf in data set [2] stood at 47 min. The molecule further had an MS Human THalf in data set [3] of 70 min. This molecule had an MS Dog THalf in data set [4] of 75 min.

For `O=c1c2cc(-c3ccc(OC(F)(F)F)cc3)ccc2nnn1Cc1ncc(Cl)cn1` [II-4, 3((5-chloropyrimidin-2-yl)methyl)-6-(4-(trifluoromethoxy)phenyl)benzo[d][1,2,3]triazin-4(3H)-one], the figures for the inhibition at 1 µM in data set [1] (setting [6]), in data set [1] (setting [7]) and in data set [5] were 9%, 4% and 41%, respectively. The molecule also displayed an MS Rat THalf in data set [2] of 135 min. The molecule also had an MS Human THalf in data set [3] of 270 min. This molecule also registered an MS Dog THalf in data set [4] of 61 min.

In the case of `O=c1c2cc(-c3ccc(OC(F)(F)F)cc3)ccc2nnn1Cc1ncccn1` [II-24, 3-(pyrimidin-2-ylmethyl)-6-(4-(trifluoromethoxy)phenyl)benzo[d][1,2,3]triazin-4(3H)-one], the figures for the inhibition at 1 µM in data set [1] (setting [6]), in data set [1] (setting [7]) and in data set [5] were 19%, 24% and 60%, respectively. The molecule also showed an MS Rat THalf in data set [2] of 324 min. This molecule displayed an MS Human THalf in data set [3] above 395 min. In data set [4], this molecule had an MS Dog THalf of 219 min.

Turning to `Cc1cc(Cn2nnc3ccc(-c4ccc(OC(F)(F)F)cc4)cc3c2=O)on1` [II-25, 3-((3-methylisoxazol-5-yl)methyl)-6-(4-(trifluoromethoxy)phenyl)benzo[d][1,2,3]triazin-4(3H)-one], the results for the inhibition at 1 µM in data set [1] (setting [6]), in data set [1] (setting [7]) and in data set [5] were 9%, 2% and 50%, respectively. In data set [2], this molecule gave an MS Rat THalf of 298 min. The molecule further had an MS Human THalf in data set [3] of 363 min. Besides, the MS Dog THalf in data set [4] amounted to 117 min.

With `Cc1cc(Cn2nnc3ccc(-c4ccc(OC(F)(F)F)cc4)cc3c2=O)no1` [II-26, 3-((5-methylisoxazol-3-yl)methyl)-6-(4-(trifluoromethoxy)phenyl)benzo[d][1,2,3]triazin-4(3H)-one], the inhibition at 1 µM in data set [1] (setting [6]) was determined as 14%; in data set [1] (setting [7]), 5%; in data set [5], 47%. Also, in data set [2], the MS Rat THalf worked out at 80 min. In addition, the MS Human THalf in data set [3] is 382 min. The molecule also came in with an MS Dog THalf in data set [4] of 67 min.

Take `O=c1c2cc(-c3ccc(Oc4ccc(Cl)cc4)cc3)ccc2nnn1CCn1cccn1` [II-29, 3-(2-(1H-pyrazol-1-yl)ethyl)-6-(4-(4-chlorophenoxyl)phenyl)benzo[d][1,2,3]triazin-4(3H)-one]: the inhibition at 1 µM in data set [1] (setting [6]) is 44%; in data set [1] (setting [7]), 67%; in data set [5] it was 52%. For the same molecule, in data set [2], the MS Rat THalf is 27 min. This molecule also yielded an MS Human THalf in data set [3] of 51 min. In data set [4], this molecule had an MS Dog THalf of 99 min.

Regarding `Cc1nccn1CC1(Cn2nnc3ccc(-c4ccc(OC(F)(F)F)cc4)cc3c2=O)CC1` [II-34, 3-((1-((2-methyl-1H-imidazol-1-yl)methyl)cyclopropyl)methyl)-6-(4-(trifluoromethoxy)phenyl)benzo[d][1,2,3]triazin-4(3H)-one], the figures for the inhibition at 1 µM in data set [1] (setting [6]), in data set [1] (setting [7]) and in data set [5] were 27%, 34% and 48%, respectively. In addition, the MS Rat THalf in data set [2] is 2 min. The molecule also returned an MS Human THalf in data set [3] of 2 min. The MS Dog THalf in data set [4] was determined as 2 min.

As to `COc1cc(OC)nc(Cn2nnc3ccc(-c4ccc(OC(F)(F)F)cc4)cc3c2=O)n1` [II-44, 3-((4,6-dimethoxypyrimidin-2-yl)methyl)-6-(4-(trifluoromethoxy)phenyl)benzo[d][1,2,3]triazin-4(3H)-one], the inhibition at 1 µM in data set [1] (setting [6]) came out at 10%; in data set [1] (setting [7]) it was 4%; in data set [5], 47%. The molecule also yielded an MS Rat THalf in data set [2] of 97 min. The molecule also registered an MS Human THalf in data set [3] of 167 min. Besides, the MS Dog THalf in data set [4] worked out at 283 min.
